According to PubChem BioAssay (NCI):
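Five concentrations, 48 hours, 96-well plates. TGI denotes the concentration required for complete inhibition of growth.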

Assays:
Assay in all cases: growth of human tumour cells (NCI), 48 h
[1] = system: UACC-62 melanoma
[2] = system: MDA-N
[3] = system: HCT-15 colon
[4] = system: RXF 393 renal
[5] = system: RPMI-8226 leukemia
[6] = system: SNB-19 CNS
[7] = system: MOLT-4 leukemia
[8] = system: LOX IMVI melanoma
[9] = system: PC-3 prostate
[10] = system: 786-0 renal
[11] = system: MALME-3M melanoma
[12] = system: M14 melanoma
[13] = system: UO-31 renal
[14] = system: DU-145 prostate
[15] = system: SN12C renal
[16] = system: SW-620 colon
[17] = system: NCI-H23 lung
[18] = system: SF-268 CNS
[19] = system: HOP-92 NSCLC
[20] = system: U251 CNS
[21] = system: UACC-257 melanoma
[22] = system: NCI/ADR-RES ovarian
[23] = system: TK-10 renal
[24] = system: ACHN renal
[25] = system: CAKI-1 renal
[26] = system: HT29 colon
[27] = system: SK-MEL-2 melanoma
[28] = system: K-562 leukemia
[29] = system: HOP-62 NSCLC
[30] = system: HCT-116 colon
[31] = system: NCI-H522 lung
[32] = system: SK-MEL-28 melanoma
[33] = system: COLO 205 colon
[34] = system: BT-549 breast
[35] = system: SF-295 CNS
[36] = system: A498 renal
[37] = system: MDA-MB-231 breast
[38] = system: SK-OV-3 ovarian
[39] = system: MDA-MB-435
[40] = system: IGROV1 ovarian
[41] = system: OVCAR-8 ovarian
[42] = system: OVCAR-5 ovarian
[43] = system: EKVX NSCLC
[44] = system: NCI-H226 lung
[45] = system: T-47D breast
[46] = system: SNB-75 CNS
[47] = system: KM12 colon
[48] = system: SK-MEL-5 melanoma
[49] = system: OVCAR-4 ovarian
[50] = system: HCC-2998 colon
[51] = system: OVCAR-3 ovarian
[52] = system: A549 NSCLC
[53] = system: HS 578T breast
[54] = system: CCRF-CEM leukemia
[55] = system: NCI-H460 lung
[56] = system: HL-60(TB) leukemia
[57] = system: SF-539 CNS
[58] = system: MCF7 breast
[59] = system: SR leukemia

O=S(=O)(c1ccc(Br)cc1)n1c2ccc(Br)cc2c2nc3ccccc3nc21
TGI [1]: > 100 µM
TGI [2]: > 100 µM
TGI [3]: > 100 µM
TGI [4]: 53 µM
TGI [5]: > 100 µM
TGI [6]: > 100 µM
TGI [7]: > 100 µM
TGI [8]: > 100 µM
TGI [9]: > 100 µM
TGI [10]: > 100 µM
TGI [11]: > 100 µM
TGI [12]: > 100 µM
TGI [13]: > 100 µM
TGI [14]: > 100 µM
TGI [15]: > 100 µM
TGI [16]: > 100 µM
TGI [17]: > 100 µM
TGI [18]: > 100 µM
TGI [19]: > 100 µM
TGI [20]: 90.3 µM
TGI [21]: > 100 µM
TGI [22]: > 100 µM
TGI [23]: > 100 µM
TGI [24]: > 100 µM
TGI [25]: > 100 µM
TGI [26]: > 100 µM
TGI [27]: > 100 µM
TGI [28]: > 100 µM
TGI [29]: > 100 µM
TGI [30]: > 100 µM
TGI [31]: > 100 µM
TGI [32]: > 100 µM
TGI [33]: > 100 µM
TGI [34]: > 100 µM
TGI [35]: > 100 µM
TGI [36]: > 100 µM
TGI [37]: > 100 µM
TGI [38]: > 100 µM
TGI [39]: > 100 µM
TGI [40]: > 100 µM
TGI [41]: > 100 µM
TGI [42]: > 100 µM
TGI [43]: > 100 µM
TGI [44]: > 100 µM
TGI [45]: > 100 µM
TGI [46]: 82.6 µM
TGI [47]: > 100 µM
TGI [48]: > 100 µM
TGI [49]: > 100 µM
TGI [50]: > 100 µM
TGI [51]: > 100 µM
TGI [52]: > 100 µM
TGI [53]: > 100 µM
TGI [54]: > 100 µM
TGI [55]: > 100 µM

Cc1ccc(C)n1-c1ccccc1C1SCCCS1
TGI [1]: > 100 µM
TGI [2]: > 100 µM
TGI [3]: > 100 µM
TGI [4]: > 100 µM
TGI [5]: > 100 µM
TGI [6]: > 100 µM
TGI [7]: > 100 µM
TGI [8]: > 100 µM
TGI [9]: > 100 µM
TGI [10]: > 100 µM
TGI [11]: > 100 µM
TGI [56]: > 100 µM
TGI [12]: > 100 µM
TGI [13]: > 100 µM
TGI [14]: > 100 µM
TGI [15]: > 100 µM
TGI [57]: > 100 µM
TGI [16]: > 100 µM
TGI [17]: > 100 µM
TGI [18]: > 100 µM
TGI [19]: > 100 µM
TGI [20]: > 100 µM
TGI [58]: > 100 µM
TGI [21]: > 100 µM
TGI [22]: > 100 µM
TGI [23]: > 100 µM
TGI [24]: > 100 µM
TGI [25]: > 100 µM
TGI [26]: > 100 µM
TGI [27]: > 100 µM
TGI [28]: > 100 µM
TGI [29]: > 100 µM
TGI [30]: > 100 µM
TGI [31]: > 100 µM
TGI [32]: > 100 µM
TGI [33]: > 100 µM
TGI [34]: > 100 µM
TGI [35]: > 100 µM
TGI [36]: > 100 µM
TGI [37]: > 100 µM
TGI [38]: > 100 µM
TGI [39]: > 100 µM
TGI [40]: > 100 µM
TGI [41]: > 100 µM
TGI [42]: > 100 µM
TGI [43]: > 100 µM
TGI [44]: > 100 µM
TGI [46]: > 100 µM
TGI [47]: > 100 µM
TGI [48]: > 100 µM
TGI [49]: > 100 µM
TGI [50]: > 100 µM
TGI [51]: > 100 µM
TGI [52]: > 100 µM
TGI [53]: > 100 µM
TGI [54]: > 100 µM
TGI [55]: > 100 µM

COCOc1ccc(C(=O)C(C)c2ccc(OCOC)cc2OCOC)c(O)c1 (stereo not given)
TGI [1]: > 100 µM
TGI [2]: > 100 µM
TGI [3]: > 100 µM
TGI [59]: > 100 µM
TGI [4]: > 100 µM
TGI [5]: > 100 µM
TGI [6]: > 100 µM
TGI [7]: > 100 µM
TGI [9]: > 100 µM
TGI [10]: > 100 µM
TGI [11]: > 100 µM
TGI [56]: > 100 µM
TGI [12]: > 100 µM
TGI [13]: > 100 µM
TGI [14]: > 100 µM
TGI [15]: > 100 µM
TGI [57]: > 100 µM
TGI [16]: > 100 µM
TGI [17]: > 100 µM
TGI [18]: > 100 µM
TGI [19]: > 100 µM
TGI [20]: > 100 µM
TGI [58]: > 100 µM
TGI [21]: > 100 µM
TGI [23]: > 100 µM
TGI [24]: > 100 µM
TGI [25]: > 100 µM
TGI [26]: > 100 µM
TGI [29]: > 100 µM
TGI [30]: > 100 µM
TGI [31]: > 100 µM
TGI [32]: > 100 µM
TGI [33]: > 100 µM
TGI [34]: > 100 µM
TGI [36]: > 100 µM
TGI [38]: > 100 µM
TGI [39]: > 100 µM
TGI [40]: > 100 µM
TGI [41]: > 100 µM
TGI [42]: > 100 µM
TGI [43]: > 100 µM
TGI [46]: > 100 µM
TGI [48]: > 100 µM
TGI [49]: > 100 µM
TGI [50]: > 100 µM
TGI [52]: > 100 µM
TGI [54]: > 100 µM
TGI [55]: > 100 µM

CCOC(=O)c1ccc(N=NN(C)C(=O)C(C)N)cc1 (stereo not given)
TGI [1]: > 100 µM
TGI [2]: > 100 µM
TGI [3]: > 100 µM
TGI [59]: > 100 µM
TGI [4]: > 100 µM
TGI [5]: > 100 µM
TGI [6]: > 100 µM
TGI [7]: > 100 µM
TGI [8]: > 100 µM
TGI [9]: > 100 µM
TGI [10]: > 100 µM
TGI [11]: > 100 µM
TGI [56]: > 100 µM
TGI [12]: > 100 µM
TGI [13]: > 100 µM
TGI [14]: > 100 µM
TGI [15]: > 100 µM
TGI [57]: > 100 µM
TGI [16]: > 100 µM
TGI [17]: > 100 µM
TGI [18]: > 100 µM
TGI [19]: > 100 µM
TGI [20]: > 100 µM
TGI [58]: > 100 µM
TGI [21]: > 100 µM
TGI [22]: > 100 µM
TGI [23]: > 100 µM
TGI [24]: > 100 µM
TGI [25]: > 100 µM
TGI [26]: > 100 µM
TGI [27]: > 100 µM
TGI [28]: > 100 µM
TGI [29]: > 100 µM
TGI [30]: > 100 µM
TGI [31]: > 100 µM
TGI [32]: > 100 µM
TGI [33]: > 100 µM
TGI [34]: > 100 µM
TGI [35]: > 100 µM
TGI [37]: > 100 µM
TGI [39]: > 100 µM
TGI [40]: > 100 µM
TGI [41]: > 100 µM
TGI [42]: > 100 µM
TGI [43]: > 100 µM
TGI [44]: > 100 µM
TGI [45]: > 100 µM
TGI [46]: > 100 µM
TGI [47]: > 100 µM
TGI [48]: > 100 µM
TGI [49]: > 100 µM
TGI [50]: > 100 µM
TGI [51]: > 100 µM
TGI [54]: > 100 µM
TGI [55]: > 100 µM
